These results are taken from patent US20120027822A1, “Process for Producing Rapidly Disintegrating Spheroids (Pellets), Granules and/or Mixtures Thereof” (SPECIFAR S.A., priority 2009, published 2012).

A short description of the first series: Polymorph study by X-Ray Powder Diffraction (XRPD). The series is classed as physicochemical. The note with it: XRPD of powder from spheroids of example 7a versus dihydrate and trihydrate patterns. As to the method:
All the formulations described in examples 7a-7h released the API quantitatively in 15 minutes. In addition, a polymorph study was performed and the crystal phase of Esomeprazole Mg powder deriving from the spheroids of example 7a was established through the application of the X-Ray Powder Diffraction (XRPD) technique. The recorded XRD patterns shown in FIG. 2 were compared against the respective patterns of the dihydrate and trihydrate forms provided by the manufacturer. […] None of the characteristic trihydrate reflections, marked with arrows in FIG. 2, could be observed.
Consider `COc1ccc2[n-]c([S@@+]([O-])Cc3ncc(C)c(OC)c3C)nc2c1.COc1ccc2[n-]c([S@@+]([O-])Cc3ncc(C)c(OC)c3C)nc2c1.O.O.[Mg+2]` [Esomeprazole Magnesium Dihydrate], for which the “crystal habit after the aqueous pelletization process” value is listed as “without deteriorating the crystal habit”.

Experiment in a further series: not given
The note with it: water; cited from earlier work.
With `COc1ccc2nc([S@@+]([O-])Cc3ncc(C)c(OC)c3C)[nH]c2c1` [Esomeprazole], the “aqueous solubility class (US Pharmacopoeia terms)” value (“aqueous solubility class” for short) is “slightly soluble or insoluble”.

Turning to `CCC1=C(C)CN(C(=O)NCCc2ccc(S(=O)(=O)NC(=O)N[C@H]3CC[C@H](C)CC3)cc2)C1=O` [Glimepiride], the “aqueous solubility class” value is on record as “practically insoluble”.

`Cc1c(OCC(F)(F)F)ccnc1C[S+]([O-])c1nc2ccccc2[nH]1` (stereo not shown) [Lansoprazole]: the “aqueous solubility class” value is listed as “practically insoluble”.

Turning to `COc1ccc2[nH]c([S+]([O-])Cc3ncc(C)c(OC)c3C)nc2c1` (stereo not shown) [Omeprazole], the “aqueous solubility class” value is “very slightly soluble”.

As for `COc1ccnc(C[S+]([O-])c2nc3ccc(OC(F)F)cc3[nH]2)c1OC` (stereo not shown) [Pantoprazole], the “aqueous solubility class” value is “freely soluble”.

As for `COCCCOc1ccnc(C[S+]([O-])c2nc3ccccc3[nH]2)c1C` (stereo not shown) [Rabeprazole], the “aqueous solubility class” value is given as “very soluble”.
